The results in this text go back to PubChem BioAssay AID1996.

Molecules are shown by their SMILES. ≈ marks a conversion by molar mass, not a printed value. Some results are limits rather than exact numbers.

The conditions of the data set: buffer; pH 7.4; 200.0 µM.
The term kinetic solubility denotes the concentration staying in solution when a stock, usually in DMSO, is diluted into the medium. In the case of `Cc1noc2ncnc(Oc3ccc(C(C)(C)C)cc3)c12`, the solubility (kinetic) was under 0.2 µg/mL.
The compound `CCC(=O)c1cn(CC(=O)Nc2ccccc2)c2ccccc12` had a solubility (kinetic) of under 0.3 µg/mL.
Regarding `Cc1ccc(NC(=O)N2CCCc3ccccc32)cc1C`, the kinetic solubility was 29 µg/mL (≈ 103 µM).
As to `COc1ccc(OCC(O)CNS(=O)(=O)c2cccc(Cl)c2)cc1` (stereo unspecified), the solubility (kinetic) came to 51.4 µg/mL (≈ 138 µM).
Take `CCOC(=O)C1=C(C)OC(N)=C(C#N)C1c1cccs1` (stereo unspecified): the solubility (kinetic) stood at 17.1 µg/mL (≈ 58.9 µM).
With `O=[N+]([O-])c1ccc2c(c1)/C(=N\O)c1ccccc1-2` the figure was 0.5 µg/mL (≈ 2.08 µM); with `CN1C(N)=NC(=O)/C1=C\c1ccc(Br)cc1`, 33.7 µg/mL (≈ 120 µM).
Consider `CN(Cc1ccccc1)C(=O)COC(=O)c1ccc[nH]c1=O`, for which the solubility (kinetic) is over 45 µg/mL.
The result for `CCN1CCCC1CNC(=O)c1cc2ccc(OC)cc2[nH]1` (stereo unspecified) reads over 45.2 µg/mL.
In turn, `O=[N+]([O-])c1ccc(-c2cn3ccccc3n2)cc1` showed a kinetic solubility of 1.7 µg/mL (≈ 7.11 µM).
`COc1ccc(CC(=O)OCc2csc(CC(=O)Nc3ccc(C)cc3)n2)cc1` came in with a solubility (kinetic) of 4.8 µg/mL (≈ 11.7 µM).
The compound `COC(=O)CC(CP(=O)([O-])CN(C)C=O)C(=O)OC` (stereo unspecified) gave a solubility (kinetic) of 27.9 µg/mL.
The result for `Nc1ccc(C(=O)[O-])c(O)c1.O.[Na+]` reads over 31.7 µg/mL; that for `CC(=O)c1c(C)[nH]c(C(=O)Nc2ccc(Cl)cc2F)c1C`, 0.7 µg/mL (≈ 2.27 µM).
With `COc1ccc(NC(=O)CNc2ccccc2C(C)=O)cc1S(=O)(=O)N1CCOCC1` the figure was 63.9 µg/mL (≈ 143 µM).
As for `Cc1cccc(NC(=O)COc2cccc3c2CCN(C)C3=O)c1`, the kinetic solubility was found to be 41.9 µg/mL (≈ 129 µM).
`CCC(=O)c1ccc(OCC(=O)OCC(=O)Nc2ccc3c(c2)OCCO3)cc1`: the solubility (kinetic) is 18.8 µg/mL (≈ 47.1 µM). Compared with the last compound, the solubility kinetic is about 2.2-fold lower.
`COc1ccc(N(CC(=O)N2CCOCC2)S(C)(=O)=O)cc1OC` registered a solubility (kinetic) of over 53.8 µg/mL.
As for `COc1ccc(N2CCN(c3ccc(NC(=O)/C=C\C(=O)O)cc3)CC2)cc1`, the kinetic solubility is over 57.2 µg/mL.
In turn, `N#CCn1cnc2c(oc3ccccc32)c1=O` yielded a kinetic solubility of over 33.8 µg/mL.
As to `c1ccc2c(c1)COC(CN1CCCCC1)OC2`, the solubility (kinetic) amounted to 35.6 µg/mL (≈ 144 µM).
As to `O=C(NCCCO)C(=O)c1c(-c2ccccc2)cc2ccccn12`, the solubility (kinetic) is over 48.4 µg/mL.
`O=C(Nc1cccnc1)c1ccc([N+](=O)[O-])s1` registered a kinetic solubility of 9.9 µg/mL (≈ 39.7 µM).
Turning to `Cc1ccc(C(=O)O/N=C(\c2ccccc2)c2ccncc2)cc1`, the solubility (kinetic) came to 0.6 µg/mL (≈ 1.9 µM).
`CC1(C)Cc2ccccc2/C(=C/C(=O)c2ccccc2)N1`: the solubility (kinetic) is under 0.6 µg/mL.
Compound `CCC1CCC/C1=N\NC(=O)c1ccoc1C` (stereo unspecified) had a solubility (kinetic) of over 35.1 µg/mL.
`Oc1ccc(F)c2cccnc12` came in with a solubility (kinetic) of 5 µg/mL (≈ 30.6 µM).
As for `O=C(COC(=O)c1ccc(Cl)nc1)c1ccc2c(c1)OCCO2`, the solubility (kinetic) was determined as 14.7 µg/mL (≈ 44 µM).
On to `CC(O)c1nc2ccccc2n1CCCc1ccccc1` (stereo unspecified), for which the solubility (kinetic) is over 42.1 µg/mL.
In the case of `COc1ccc2oc(=O)c(N3C(=O)c4ccccc4C3=O)cc2c1`, the kinetic solubility was 1.2 µg/mL (≈ 3.73 µM).
As for `Cc1cc(NC(=O)COC(=O)CC2CCCC2)c([N+](=O)[O-])cc1C`, the solubility (kinetic) is 3 µg/mL (≈ 8.97 µM).
The compound `COc1ccc(NC(=O)CNCc2ccc(Cl)cc2)cc1S(=O)(=O)N1CCOCC1.O=C(O)C(=O)O` returned a solubility (kinetic) of over 81.6 µg/mL.
With `COc1cc2c(cc1OC)C(c1ccc(C)cc1)NC(=O)C2` (stereo unspecified), the solubility (kinetic) is 42.5 µg/mL (≈ 143 µM).
`CC(=O)O.O=S(=O)(CCc1ccncc1)C1Cc2cccc3cccc1c23` (stereo unspecified) came in with a solubility (kinetic) of 49.4 µg/mL.
With `Cc1ccc(C(=O)Nc2cccc3[nH]c(C(F)(F)F)nc23)cc1` the figure was 3.3 µg/mL (≈ 10.3 µM).
The compound `CSc1nc(=S)n(-c2cc(C)ccc2C)c(C)c1C(C)=O` returned a solubility (kinetic) of over 47.8 µg/mL.
In turn, `COc1ccccc1Nc1ccc(C(=O)O)cc1[N+](=O)[O-]` yielded a solubility (kinetic) of over 43.2 µg/mL.
The result for `Cc1c(C(=O)NC(C)C2CC3CCC2C3)cccc1[N+](=O)[O-]` (stereo unspecified) reads 34.3 µg/mL (≈ 113 µM); that for `COc1ccc(C(=O)n2c(N)nc3ccccc32)cc1OC.Cl`, 10.9 µg/mL.
Turning to `CCc1ccccc1N1CN(Cc2cccnc2)CNC1=S`, the solubility (kinetic) is over 46.9 µg/mL.
In turn, `CC1CCc2ccccc2N1C(=N)N(C)C.Cl` (stereo unspecified) gave a solubility (kinetic) of over 38.1 µg/mL.
In the case of `Cc1ccc(C(=O)N2CCC(C(=O)c3c(C)cc(C)cc3C)CC2)cc1`, the solubility (kinetic) came to 24.1 µg/mL (≈ 69 µM).
In turn, `CCN(Cc1ccccc1)C(=O)c1cc2cc(OC)c(OC)cc2[nH]1` showed a solubility (kinetic) of under 0.4 µg/mL.
In turn, `Oc1ccc(C=NCCc2ccccc2)cc1` returned a solubility (kinetic) of over 33.8 µg/mL.
The compound `CN1C(=O)/C(=C/C=C2\SCCN2C)N(C)C1=S` showed a solubility (kinetic) of 8 µg/mL (≈ 29.7 µM).
`CN1CCN(C(=O)CCc2nc(-c3ccc(Cl)cc3)no2)CC1` gave a solubility (kinetic) of over 50.2 µg/mL.
For the compound `O=C(Oc1ccc(Cl)c(Cl)c1)C1=CC=CN2CCS(=O)(=O)N=C12`, the solubility (kinetic) was 19.7 µg/mL (≈ 52.8 µM).
`Fc1ccc(OCCOCCOc2cccc3[nH]ccc23)cc1` returned a solubility (kinetic) of 16.3 µg/mL (≈ 51.7 µM).
In the case of `COc1ccc(N2CCN(C(=O)[C@H](C)N3C(=O)C4CC=CCC4C3=O)CC2)cc1` (stereo partly specified), the solubility (kinetic) is over 59.6 µg/mL.
On to `CN(C)C(CNS(=O)(=O)c1ccc(Cl)cc1F)c1ccco1.Cl` (stereo unspecified), for which the kinetic solubility is over 57.5 µg/mL.
For `COc1ccccc1C(=O)NC(=O)Nc1cccc(Cl)c1`, the kinetic solubility was under 0.3 µg/mL.
